# According to article PMC11357256, “Selectivity Screening and Structure–Cytotoxic Activity Observations of Selected Oleanolic Acid (OA)-Type Saponins from the Amaranthaceae Family on a Wiade Panel of Human Cancer Cell Lines” (Molecules, 2024):
# pIC50: −log10 of the molar value. Like-named read-outs stand apart in the source and are kept apart here.
# Key:
# HCT116 = assay: MTT cell viability assay, HCT116 colon cancer cells; type: cell-based; conditions: Homo sapiens, HCT-116
# Description: (§1) Cell lines used in the study were grouped as follows: skin panel (melanomas: HTB140, derived from metastatic site: lymph node, ATCC Hs 294 T; malignant A375, ATCC CRL-1619; stage I primary WM793, RRID:CVCL 8787; skin keratinocytes HaCaT); prostate panel (prostate carcinomas: Du145, derived from metastatic site: brain, ATCC HTB-81; grade IV PC3, derived from metastatic site: bone, ATCC CRL-1435, LNCaP, derived from the metastatic site: lymph node, ATCC CRL-1740; prostate epithelial, PNT2, ECACC 95012613); gastrointestinal panel (colorectal adenocarcinomas: Caco2, ATCC HTB-37, HT29, ATCC HTB-38, DLD-1, ATCC CCL-221, HCT116, ATCC CCL-247, and colon epithelial cells CCD 841 CoN, ATCC CRL-1790; hepatocellular carcinoma HepG2, ATCC HB-8065); thyroid panel (follicular thyroid carcinoma FTC133, ECACC 9406090, undifferentiated thyroid carcinoma 8505C, ECACC 94090184, papillary thyroid carcinoma TPC-1, SCC147, normal thyroid follicular epithelial Nthy-ori 3–1, ECACC 90011609); and breast panel (ER-positive breast adenocarcinoma MCF7, ATCC HTB-22; ER-negative breast adenocarcinoma MDA-MB-231, ATCC HTB-26; breast epithelial MCF10A, ATCC CRL-10317). Cells were grown under standard conditions (37 °C, 5% CO2, relative humidity), and culture media (DMEM/F12 for PNT2, WM 793, HT29, PC3, FTC133, 8505 C, MDA-MB-231, TPC-1; DMEM Low Glucose for DU145; DMEM High Glucose for HTB140, A375, HaCaT; MEM with NEAA for Caco2 and MCF7; RPMI1640 with sodium pyruvate for LNCaP; DMEM/F12 with 20 ng/mL epidermal growth factor (EGF), 10 μg/mL insulin, 0.5 μg/mL hydrocortisone, 100 ng/mL cholera toxin) for MCF10A) supplemented with 10% fetal bovine serum (FBS) or 5% donor horse serum for MCF10A, and 1% antibiotics solution (10,000 U penicillin and 10 mg streptomycin/mL) […], as previously described. All cell lines, culture media, and supplements were from Sigma-Aldrich (Germany).
# (§2) The cells were seeded in 96-well plates (1.5 × 10^4 cells/well). After 24 h, fresh medium was added, containing the tested compounds (0.5–100 μg/mL) and incubated for 24 or 48 h. Cell viability was determined by MTT assay, according to the manufacturer’s instructions, as described previously. Each experiment was performed in triplicate. The absorbance was measured at 570 nm using a Biotek Synergy microplate reader (BioTek Instruments Inc., Winooski, VT, USA). Cell viability was expressed as a percent of control (untreated cells). Doxorubicin was used as a reference drug.
# CCD 841 CoN = assay: MTT cell viability assay, CCD 841 CoN normal colon epithelial cells; type: cell-based; conditions: Homo sapiens
# Description: as §1, §2
# HTB-140 = assay: MTT cell viability assay, HTB-140 metastatic melanoma cells; type: cell-based, human; conditions: for IC50: Homo sapiens
# Description: as §1, §2
# (§3) The selectivity index (SI) was calculated from the following formula:SI = IC50 of compound in a normal cell line/IC50 of compound in cancer cell line.IC50, half maximal inhibitory concentration, is a concentration required to kill 50% of the cells.
# 8505C = assay: MTT cell viability assay, 8505C undifferentiated thyroid carcinoma cells; type: cell-based, human; conditions: for IC50: Homo sapiens, 8505C; for Selectivity Index (SI): IC50 Nthy-ori 3-1 / IC50 8505C
# Description: as §1, §2, §3
# LNCaP = assay: MTT cell viability assay, LNCaP prostate adenocarcinoma cells; type: cell-based; conditions: Homo sapiens
# Description: as §1, §2
# MDA-MB-231 = assay: MTT cell viability assay, MDA-MB-231 breast adenocarcinoma cells; type: cell-based; conditions: Homo sapiens
# Description: as §1, §2
# Caco-2 = assay: MTT cell viability assay, Caco-2 colon cancer cells; type: cell-based; conditions: Homo sapiens
# Description: as §1, §2
# PNT2 = assay: MTT cell viability assay, PNT2 normal prostate epithelial cells; type: cell-based; conditions: Homo sapiens
# Description: as §1, §2
# PC3 = assay: MTT cell viability assay, PC3 prostate carcinoma cells; type: cell-based; conditions: Homo sapiens, PC-3
# Description: as §1, §2
# HaCaT = assay: MTT cell viability assay, HaCaT keratinocytes; type: cell-based; conditions: Homo sapiens
# Description: as §1, §2
# WM793 = assay: MTT cell viability assay, WM793 primary melanoma cells; type: cell-based, human; conditions: for IC50: Homo sapiens
# Description: as §1, §2, §3
# DLD-1 = assay: MTT cell viability assay, DLD-1 colon cancer cells; type: cell-based; conditions: Homo sapiens
# Description: as §1, §2
# A375 = assay: MTT cell viability assay, A375 malignant melanoma cells; type: cell-based, human; conditions: for IC50: Homo sapiens, A-375
# Description: as §1, §2, §3
# TPC-1 = assay: MTT cell viability assay, TPC-1 papillary thyroid carcinoma cells; type: cell-based, human; conditions: for IC50: Homo sapiens, TPC1
# Description: as §1, §2, §3
# HepG2 = assay: MTT cell viability assay, HepG2 hepatocellular carcinoma cells; type: cell-based; conditions: Homo sapiens
# Description: as §1, §2
# Nthy-ori 3-1 = assay: MTT cell viability assay, Nthy-ori 3-1 normal thyroid epithelial cells; type: cell-based; conditions: Homo sapiens
# Description: as §1, §2
# MCF-7 cells = conditions: cited from earlier work
# Du-145 = assay: MTT cell viability assay, Du-145 prostate carcinoma cells; type: cell-based; conditions: Homo sapiens
# Description: as §1, §2
# MCF10A = assay: MTT cell viability assay, MCF10A normal breast epithelial cells; type: cell-based; conditions: Homo sapiens, MCF-10A
# Description: as §1, §2
structure (smiles),measurement,setting,value
"CC1(C)CCC2(C(=O)O)CCC3(C)C(=CCC4C5(C)CCC(OC6OC(C(=O)O)C(O)C(O)C6O)C(C)(C)C5CCC43C)C2C1 [CE, oleanolic acid-3-O-β-D-glucuronopyranoside]",IC50,"HCT116; HCT116, 24 h",14.3 mg/L
same,IC50,"HCT116; HCT116, 48 h",10.2 mg/L
same,IC50,CCD 841 CoN; 24 h,> 100 mg/L
same,IC50,CCD 841 CoN; 48 h,> 100 mg/L
same,IC50,"HTB-140; HTB-140, 24 h",2.8 mg/L
same,IC50,"HTB-140; HTB-140, 48 h",1.7 mg/L
same,Selectivity Index (SI),"HTB-140; IC50 HaCaT / IC50 HTB-140, 24 h",1.8
same,Selectivity Index (SI),"HTB-140; IC50 HaCaT / IC50 HTB-140, 48 h",1.1
same,IC50,8505C; 24 h,2.8 mg/L
same,IC50,8505C; 48 h,1.8 mg/L
same,Selectivity Index (SI),8505C; 24 h,26.9
same,Selectivity Index (SI),8505C; 48 h,16.5
same,IC50,LNCaP; 24 h,> 100 mg/L
same,IC50,LNCaP; 48 h,> 100 mg/L
same,IC50,"MDA-MB-231; MDA-MB-231, 24 h",69.6 mg/L
same,IC50,"MDA-MB-231; MDA-MB-231, 48 h",23.5 mg/L
same,IC50,"Caco-2; Caco-2, 24 h",2 mg/L
same,IC50,"Caco-2; Caco-2, 48 h",1 mg/L
same,IC50,PNT2; 24 h,> 100 mg/L
same,IC50,PNT2; 48 h,> 100 mg/L
same,IC50,"PC3; PC3, 24 h",5.6 mg/L
same,IC50,"PC3; PC3, 48 h",2.9 mg/L
same,IC50,HaCaT; 24 h,5.1 mg/L
same,IC50,HaCaT; 48 h,2 mg/L
same,IC50,"WM793; WM793, 24 h",2.4 mg/L
same,IC50,"WM793; WM793, 48 h",1.2 mg/L
same,Selectivity Index (SI),"WM793; IC50 HaCaT / IC50 WM793, 24 h",2.1
same,Selectivity Index (SI),"WM793; IC50 HaCaT / IC50 WM793, 48 h",1.6
same,IC50,"DLD-1; DLD-1, 24 h",31.2 mg/L
same,IC50,"DLD-1; DLD-1, 48 h",9 mg/L
same,IC50,"A375; A375, 24 h",1.8 mg/L
same,IC50,"A375; A375, 48 h",0.8 mg/L
same,Selectivity Index (SI),"A375; IC50 HaCaT / IC50 A375, 24 h",2.9
same,Selectivity Index (SI),"A375; IC50 HaCaT / IC50 A375, 48 h",2.6
same,IC50,"TPC-1; TPC-1, 24 h",8.5 mg/L
same,IC50,"TPC-1; TPC-1, 48 h",5.8 mg/L
same,Selectivity Index (SI),"TPC-1; IC50 Nthy-ori 3-1 / IC50 TPC-1, 24 h",9.0
same,Selectivity Index (SI),"TPC-1; IC50 Nthy-ori 3-1 / IC50 TPC-1, 48 h",5.1
same,IC50,"HepG2; HepG2, 24 h",16.5 mg/L
same,IC50,"HepG2; HepG2, 48 h",6.9 mg/L
same,IC50,Nthy-ori 3-1; 24 h,76 mg/L
same,IC50,Nthy-ori 3-1; 48 h,30.1 mg/L
same,IC50,"MCF-7 cells; 48 h, ref 13",35.4 mg/L
same,pIC50,"MCF-7 cells; 48 h, ref 14, read-out: IC50",4.71
same,pIC50,"MCF-7 cells; 72 h, read-out: IC50",4.87
same,IC50,"Du-145; DU-145, 24 h",6.7 mg/L
same,IC50,"Du-145; DU-145, 48 h",4.3 mg/L
same,IC50,MCF10A; 24 h,> 100 mg/L
same,IC50,MCF10A; 48 h,> 100 mg/L
